Here are results for twelve compounds from ChEMBL document CHEMBL4840340, “Design, synthesis, kinetic, molecular dynamics, and hypoglycemic effect characterization of new and potential selective benzimidazole derivatives as Protein Tyrosine Phosphatase 1B inhibitors” (Bioorg Med Chem, 2021).

Experiment [1] addresses T1, Tyrosine-protein phosphatase non-receptor type 1 (Homo sapiens) (UniProt P18031).
T1 sequence (whole entry): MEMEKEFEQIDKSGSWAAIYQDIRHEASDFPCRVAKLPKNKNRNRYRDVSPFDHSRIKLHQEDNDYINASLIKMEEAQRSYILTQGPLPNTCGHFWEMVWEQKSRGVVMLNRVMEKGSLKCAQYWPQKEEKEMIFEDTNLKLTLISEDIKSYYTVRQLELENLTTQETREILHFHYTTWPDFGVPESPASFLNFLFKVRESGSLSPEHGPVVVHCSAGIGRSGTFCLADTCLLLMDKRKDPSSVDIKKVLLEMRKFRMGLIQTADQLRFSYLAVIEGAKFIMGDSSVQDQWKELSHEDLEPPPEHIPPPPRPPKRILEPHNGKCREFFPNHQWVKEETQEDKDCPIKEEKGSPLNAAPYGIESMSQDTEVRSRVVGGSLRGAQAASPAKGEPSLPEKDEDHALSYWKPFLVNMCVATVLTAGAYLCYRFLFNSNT
The experiment can be described thus: Inhibition of PTP1B (unknown origin) at 40 uM using pNPP as substrate by spectrophotometric analysis.

Experiment [2] has as its target T1, Tyrosine-protein phosphatase non-receptor type 1 (Homo sapiens). Briefly: Inhibition of PTP1B (unknown origin) at 20 uM using pNPP as substrate by spectrophotometric analysis.
Experiment [3] concerns the target T2, Tyrosine-protein phosphatase non-receptor type 1 (Homo sapiens, UniProt P18031).
T2 sequence (P18031 whole entry): T1 sequence (whole entry)
The experiment can be described thus: Inhibition of PTP1B (unknown origin) assessed as inhibition constant using pNPP as substrate by spectrophotometric analysis.

Experiment [4] deals with T1, Tyrosine-protein phosphatase non-receptor type 1 (Homo sapiens). Briefly: Inhibition of PTP1B (unknown origin) assessed as inhibition constant for uncompetitive inhibition using pNPP as substrate by spectrophotometric analysis.
For experiment [5], the system named is Rattus norvegicus. Briefly: Hypoglycemic activity in high fat diet-fed induced type 2 diabetic mellitus Wistar rat model assessed as blood glucose level at 60 mg/kg, ip by glucose tolerance test. The format is functional.
Experiment [6] concerns the target T1, Tyrosine-protein phosphatase non-receptor type 1 (Homo sapiens). The experiment can be described thus: Mixed type inhibition of PTP1B (unknown origin) using varying levels of pNPP as substrate by Lineweaver-Burk plot analysis.

The source made the active and inactive calls. The rule behind the calls is not given here.

For the compound `CCOc1cc2nc(SCC(=O)Nc3ccc(C(=O)O)cc3)[nH]c2cc1Cl`, the inhibition (commonly the drop in the measured response relative to a control, in per cent) in experiment [1] was found to be 0%.

For `O=C(CSc1nc2cc(Oc3ccc4ccccc4c3)ccc2[nH]1)Nc1nccs1`, the inhibition result in experiment [2] is “inactive”.

For the compound `O=C(CSc1nc2cc(Oc3cccc4ccccc34)ccc2[nH]1)Nc1nccs1`, the inhibition entry in experiment [2] was “inactive”.

On to `Cc1cc(NC(=O)CSc2nc3cc(Oc4ccc5ccccc5c4)ccc3[nH]2)on1`, for which the inhibition result in experiment [2] is “inactive”.

For the compound `CCOC(=O)c1csc(NC(=O)CSc2nc3cc(Oc4ccc5ccccc5c4)ccc3[nH]2)n1`, the inhibition result in experiment [2] is “inactive”.

In the case of `O=C(CSc1nc2cc(Oc3ccc4ccccc4c3)c(Cl)cc2[nH]1)Nc1nccs1`, in experiment [2], the inhibition result was “inactive”.

As for `O=C(CSc1nc2cc(Oc3ccc4ccccc4c3)c(Cl)cc2[nH]1)Nc1ccc(C(=O)O)cc1`, the Ki – broadly, the dissociation constant of the complex between target and ligand, obtained from inhibition or displacement – in experiment [3] was 12.6 µM. Further, the inhibition in experiment [1] is 75%. Moreover, in experiment [4], the alphaKi was 37.8 µM. Moreover, the Activity in experiment [5] came out at 28%. Further, the inhibition result in experiment [6] is “Active”.

For the compound `O=C(CSc1nc2cc(Oc3cccc4ccccc34)ccc2[nH]1)Nc1ccccc1C(=O)O`, in experiment [3], the Ki was 23.3 µM. The compound further showed an inhibition in experiment [1] of 45%. In addition, the alphaKi in experiment [4] turned out to be 60.6 µM. In experiment [5], the Activity is given as 15%. For the same compound, in experiment [6], the inhibition result was “Active”.

For `CCOC(=O)c1ccc(NC(=O)CSc2nc3cc(Oc4ccc5ccccc5c4)ccc3[nH]2)cc1`, the inhibition entry in experiment [2] is “inactive”.

Regarding `O=C(CSc1nc2cc(Oc3cccc4ccccc34)ccc2[nH]1)Nc1ccc(C(=O)O)cc1`, in experiment [3], the Ki came to 30.2 µM. The compound further had an inhibition in experiment [1] of 40%. For the same compound, the alphaKi in experiment [4] is 124 µM. Also, the Activity in experiment [5] is 19%. For the same compound, in experiment [6], the inhibition entry was “Active”.

`CCOC(=O)c1ccc(NC(=O)CSc2nc3cc(Oc4cccc5ccccc45)ccc3[nH]2)cc1`: in experiment [2], the inhibition result is “inactive”.

For the compound `O=C(CSc1nc2cc(Oc3ccc4ccccc4c3)ccc2[nH]1)Nc1ccc(C(=O)O)cc1`, the Ki in experiment [3] is 35.2 µM. In experiment [1], this compound came in with an inhibition of 30%. For the same compound, in experiment [4], the alphaKi was found to be 113 µM. Further, the Activity in experiment [5] came out at 23%. Moreover, in experiment [6], the inhibition result is “Active”.
